The target of the assay is human PSMA (Homo sapiens (Human), UniProt Q04609). As to the kind of experiment: Enzymatic assay for in vitro evaluation of PSMA inhibitors (fluorescent assay of PSMA activity, NAAG substrate, OPA detection of glutamate). Type of assay: biochemical. The conditions noted are these: for PSMA Blkg % (10 μM): compound at 10 μM.

The results in this text go back to patent US10894807B2 (Siemens Medical Solutions USA, Inc., priority 2011, dated 2021).

human PSMA, sequence (Q04609 whole entry): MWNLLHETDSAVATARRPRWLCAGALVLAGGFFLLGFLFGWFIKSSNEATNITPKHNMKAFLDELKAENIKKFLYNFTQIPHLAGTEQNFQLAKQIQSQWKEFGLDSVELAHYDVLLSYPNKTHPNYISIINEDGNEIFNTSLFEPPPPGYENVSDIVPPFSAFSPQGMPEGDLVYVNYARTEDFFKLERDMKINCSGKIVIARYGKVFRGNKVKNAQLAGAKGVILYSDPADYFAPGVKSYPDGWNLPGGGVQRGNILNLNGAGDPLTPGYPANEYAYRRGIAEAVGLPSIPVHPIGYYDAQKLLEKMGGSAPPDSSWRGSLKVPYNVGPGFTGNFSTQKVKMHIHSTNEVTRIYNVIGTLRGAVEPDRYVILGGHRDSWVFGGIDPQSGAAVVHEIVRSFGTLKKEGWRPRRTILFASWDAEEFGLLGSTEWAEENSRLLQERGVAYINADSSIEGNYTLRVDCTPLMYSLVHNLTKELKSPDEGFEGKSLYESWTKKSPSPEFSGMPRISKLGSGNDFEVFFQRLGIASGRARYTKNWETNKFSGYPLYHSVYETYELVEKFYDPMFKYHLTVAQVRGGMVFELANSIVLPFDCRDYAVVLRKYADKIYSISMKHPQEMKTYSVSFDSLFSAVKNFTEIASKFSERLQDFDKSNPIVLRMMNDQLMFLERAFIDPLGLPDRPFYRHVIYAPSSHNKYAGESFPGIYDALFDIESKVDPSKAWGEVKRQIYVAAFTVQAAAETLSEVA

As to `NCCOCCOCCOCCOCc1cn(-c2cc(C(=O)Nc3ccc(C[C@H](NC(=O)N[C@@H](CCC(=O)O)C(=O)O)C(=O)O)cc3)cc(C(=O)Nc3ccc(C[C@H](NC(=O)N[C@@H](CCC(=O)O)C(=O)O)C(=O)O)cc3)c2)nn1` [P294, (2S,2′S)-2,2′-(((((1S,1′S)-(((5-(4-(13-Amino-2,5,8,11-tetraoxatridecyl)-1H-1,2,3-triazol-1-yl)isophthaloyl)bis(azanediyl))bis(4,1-phenylene))bis(1-carboxyethane-2,1-diyl))-bis(azanediyl))bis(carbonyl))bis(azanediyl))dipentanedioic Acid], the “PSMA Blkg % (1.0 μM)” value is reported as 99%.
Regarding `O=C(O)CC[C@@H](NC(=O)N[C@@H](CCCCNC(=O)OCc1ccccc1)C(=O)O)C(=O)O` [P295, (9S,13R)-3,11-Dioxo-1-phenyl-2-oxa-4,10,12-triazapentadecane-9,13,15-tricarboxylic Acid], the “PSMA Blkg % (1.0 μM)” value is given as 45%.
Regarding `O=C(O)CC[C@H](NC(=O)C[C@@H](NC(=O)CCCCCNC(=O)c1cc(C(=O)NCCCCCC(=O)N[C@H](CC(=O)N[C@@H](CCC(=O)O)C(=O)O)C(=O)O)cc([N+](=O)[O-])c1)C(=O)O)C(=O)O` [P296, (2S,2′S)-2,2′-(((3R,3′R)-3,3′-((6,6′-((5-nitroisophthaloyl)bis(azanediyl))bis(hexanoyl))-bis(azanediyl))bis(3-carboxypropanoyl))bis(azanediyl))dipentanedioic Acid], the “PSMA Blkg % (1.0 μM)” value was found to be 72%.
`O=C(O)CC[C@@H](NC(=O)N[C@@H](CCCCNC(=O)c1cc(C(=O)NCCCC[C@H](NC(=O)N[C@H](CCC(=O)O)C(=O)O)C(=O)O)cc(-n2cc(CCCF)nn2)c1)C(=O)O)C(=O)O` [P297, (2R,2′R)-2,2′-(((((1S,1′S)-((5-(4-(3-Fluoropropyl)-1H-1,2,3-triazol-1-yl)isophthaloyl)-bis(azanediyl))bis(1-carboxypentane-5,1-diyl))bis(azanediyl))bis(carbonyl))-bis(azanediyl))dipentanedioic Acid]: the “PSMA Blkg % (1.0 μM)” value is reported as 31%.
Still for that read-out and setting: the value for `O=C(O)CC[C@H](NC(=O)C[C@@H](NC(=O)CCCNC(=O)c1cc(C(=O)NCCCC(=O)N[C@H](CC(=O)N[C@@H](CCC(=O)O)C(=O)O)C(=O)O)cc([N+](=O)[O-])c1)C(=O)O)C(=O)O` [P298, (2S,2′S)-2,2′-(((3R,3′R)-3,3′-((4,4′-((5-Nitroisophthaloyl)bis(azanediyl))bis(butanoyl))-bis(azanediyl))bis(3-carboxypropanoyl))bis(azanediyl))dipentanedioic Acid] was 88%.
As to “(9S,13S)-9-Carboxy-13-((1-(2-fluoroethyl)-1H-1,2,3-triazol-4-yl)methyl)-3,11-dioxo-1-phenyl-2-oxa-4,10,12-triazatetradecan-14-oic Acid [P187]”, the “PSMA Blkg % (10 μM)” value was 77%.
For “(S)-2-(3-((S)-1-Carboxy-5-(4-(2-fluoroethoxy)benzamido)pentyl)ureido)pentanedioic Acid [P160]”, the affinity corresponds to a Ki of 219 nM and the “PSMA Blkg % (10 μM)” value turned out to be 88%.
